Biological target: T1, full-length SARM1 (FL-SARM1) (Homo sapiens, UniProt Q6SZW1)
T1 sequence (Q6SZW1 28-724): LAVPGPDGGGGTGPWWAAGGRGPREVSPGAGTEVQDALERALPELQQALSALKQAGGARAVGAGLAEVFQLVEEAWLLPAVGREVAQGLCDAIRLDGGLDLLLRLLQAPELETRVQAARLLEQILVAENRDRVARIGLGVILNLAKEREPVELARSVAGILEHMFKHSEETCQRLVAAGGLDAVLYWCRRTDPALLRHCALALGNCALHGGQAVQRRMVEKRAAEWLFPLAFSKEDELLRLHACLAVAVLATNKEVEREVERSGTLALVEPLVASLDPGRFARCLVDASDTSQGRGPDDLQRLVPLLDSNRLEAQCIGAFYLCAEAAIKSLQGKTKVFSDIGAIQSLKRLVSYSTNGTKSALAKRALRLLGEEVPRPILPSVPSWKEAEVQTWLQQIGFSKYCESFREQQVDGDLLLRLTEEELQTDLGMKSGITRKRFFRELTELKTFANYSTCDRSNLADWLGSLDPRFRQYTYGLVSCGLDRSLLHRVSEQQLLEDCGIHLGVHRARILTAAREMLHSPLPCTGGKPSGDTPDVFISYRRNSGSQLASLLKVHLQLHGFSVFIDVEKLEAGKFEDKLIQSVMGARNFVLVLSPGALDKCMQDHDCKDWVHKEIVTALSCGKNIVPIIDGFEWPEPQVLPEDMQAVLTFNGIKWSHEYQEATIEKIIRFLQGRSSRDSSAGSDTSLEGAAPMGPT
Test: FL-SARM1 cellular lysate assay (NAD/NADH-Glo readout of remaining NAD+)
Settings: SARM1 cellular lysate from transfected HEK293T cells, NAD+ and NMN, 11 point curve
Description: Preparation of full-length SARM1 (FL-SARM1) lysate: HEK293T cells (ATCC: CRL-3216) were grown on 150 mm TC-treated dishes to 80-90% confluency in complete DMEM (Thermo Fisher: 11965175) supplemented with 10% HI-FBS (VWR: 10802-772), 1× Pen/Strep (Thermo Fisher: 15140122), 1× NEAA (Thermo Fisher: 1140050), 1× glutamax (Thermo Fisher: 35050061), and 1 mM sodium pyruvate (Thermo Fisher: 11360070)) at 37° C. and 5% CO2. One hour prior to transfection, the media was replaced with fresh, 37° C. complete DMEM (20 mL per one 150 mm dish) supplemented with additional 10 mM glucose (Alfa Aesar AAJ60067EQE). Per one 150 mm dish, 30 μg FL-SARM1 (SEQ. ID. 1; cloned in-house) plasmid was dissolved in 1 mL DMEM at ambient temperature and were mixed by inverting the tube 8-10 times. 90 μL of GenJet™ in vitro DNA transfection reagent (Ver2) was dissolved in 1 mL DMEM at ambient temperature and were mixed by inverting the tube 8-10 times. The plasmid and transfection agent solutions were combined, mixed by 8-10 inversions and incubated for 10 minutes at ambient temperature. 2 mL of this transfection mixture was added to each dish containing HEK293T cells as prepared above followed by a gentle mixing of 4-5 horizontal rotations. The dishes were incubated at 37° C. and 5% CO2 for 24 h. The dishes were removed from the incubator, the medium was aspirated and the cells were scraped off using cell scrapers in ice-cold 1× PBS (5 mL/dish, Thermo Fisher Scientific 10010023). The collected cells were centrifuged at 300 g for 5 minutes at 4° C. The supernatant was aspirated and the pellet was frozen at −80° C. until needed. The cell pellet from 30 dishes was dissolved in 30 mL 1× PBS supplemented with 4 tablets of Complete, Mini EDTA-free protease inhibitor cocktail at 4° C. This mixture was sonicated on ice for 10 minutes at 50% amplitude with a 1 second on/1 second off interval using a Model 120 sonicator (Thermo Fisher Scientific, FB120110). The lysate was centrifuged at 16000 g for 10 minutes at 4° C.
To a white 384-well Proxiplate (PerkinElmer, PE-6008280) was added 50 nL/well of a DMSO solution containing test compounds followed by 7.5 mL/well of a 0.067 mg/mL solution of SARM1 cellular lysate in reaction buffer (DPBS containing CHAPSO (0.1%) and fatty acid free BSA (0.032%)). The plate was centrifuged for 1 minute at 1000 RPM and then placed in an incubator at 23° C. for 15 minutes. To the wells were added 2.5 mL/well of a solution containing 40 mM NAD^+ and 4 mM NMN in reaction buffer. The plate was centrifuged for 1 min at 1000 RPM, the plate was sealed and placed in an incubator at 23° C. for 3.5 hours before adding 3.5 mL/well of NAD/NADH-Glo™ solution (preparation as described by Promega using the extended detection protocol). The plate was centrifuged for 1 minute at 1000 RPM and then incubated at 23° C. for 20 minutes. 1 mL/well of a 3.625 mM solution of menadione in DMSO was added and the plate was centrifuged for 1 minute at 1000 RPM. […] Percent inhibition was calculated as follows:
IC50 values were calculated from an 11 point curve using ½ log dilutions using a four-parameter logistic regression curve fit.

Structure (SMILES)	IC50 (Activity (μM))	IC50 (Activity)
Cc1ccc(NC(=O)N2C3C[C@H]2C[C@H](n2cccn2)C3)cc1-c1cncc(F)c1 [Example 6, trans-N-(3-(5-fluoropyridin-3-yl)-4-methylphenyl)-3-(1H-pyrazol-1-yl)-6-azabicyclo[3.1.1]heptane-6-carboxamide]	6.6 µM	1 to 10 µM
Cc1nnc([C@]23C[C@H](C)C[C@H](C2)N3C(=O)Nc2cc(-c3cncc(F)c3)c(C)cc2F)o1 (single isomer, unassigned) [Example 125, cis-N-(2-fluoro-5-(5-fluoropyridin-3-yl)-4-methylphenyl)-3-methyl-1-(5-methyl-1,3,4-oxadiazol-2-yl)-6-azabicyclo[3.1.1]heptane-6-carboxamide]	0.025 µM	0.0001 to 1 µM
Cc1ccc(NC(=O)[C@H]2C[C@H](C3CC3)C2)cc1-c1cncc(F)c1 [Example 108, trans-3-cyclopropyl-N-[3-(5-fluoropyridin-3-yl)-4-methylphenyl]cyclobutane-1-carboxamide]	5.3 µM	1 to 10 µM
Cc1ccc(NC(=O)N2C3C[C@@H]2C[C@H](n2cccn2)C3)cc1-c1cncc(F)c1 [Example 27, cis-N-(3-(5-fluoropyridin-3-yl)-4-methylphenyl)-3-(1H-pyrazol-1-yl)-6-azabicyclo[3.1.1]heptane-6-carboxamide]	14.1 µM	> 10 µM
Cc1ccc(NC(=O)N2C3CCCC2C3)cc1-c1cnc(C)c(F)c1 [Example 89, N-(3-(5-fluoro-6-methylpyridin-3-yl)-4-methylphenyl)-6-azabicyclo[3.1.1]heptane-6-carboxamide]	0.4 µM	0.0001 to 1 µM
C[C@@H]1CC2C[C@@H](C1)N2C(=O)Nc1ccc(C2CC2)c(-c2cncc(F)c2)c1 (single isomer, unassigned) [Example 50, trans-N-(4-cyclopropyl-3-(5-fluoropyridin-3-yl)phenyl)-3-methyl-6-azabicyclo[3.1.1]heptane-6-carboxamide]	0.2 µM	0.0001 to 1 µM
C[C@@H]1CC2C[C@H](C1)N2C(=O)Nc1ccc(C2CC2)c(-c2cncc(F)c2)c1 (single isomer, unassigned) [Example 51, cis-N-(4-cyclopropyl-3-(5-fluoropyridin-3-yl)phenyl)-3-methyl-6-azabicyclo[3.1.1]heptane-6-carboxamide]	0.2 µM	0.0001 to 1 µM
Cc1ccc(NC(=O)N2C3CCCC2C3)cc1-c1cccnc1 [Example 86, N-(4-methyl-3-(pyridine-3-yl)phenyl)-6-azabicyclo[3.1.1]heptane-6-carboxamide]	0.2 µM	0.0001 to 1 µM
Cc1ccc(NC(=O)N2C[C@H]3C[C@@H]2CN3c2ncccn2)cc1-c1cncc(F)c1 [Example 19, (1R,4R)-N-(3-(5-fluoropyridin-3-yl)-4-methylphenyl)-5-(pyrimidin-2-yl)-2,5-diazabicyclo[2.2.1]heptane-2-carboxamide]	19.8 µM	> 10 µM
O=C(Nc1ccc(C2CC2)c(-c2cncc(F)c2)c1)N1C2CCCC1C2 [Example 66, N-(4-cyclopropyl-3-(5-fluoropyridin-3-yl)phenyl)-6-azabicyclo[3.1.1]heptane-6-carboxamide]	2 µM	1 to 10 µM
Cc1ccc(NC(=O)[C@H]2C[C@H](C3CC3(F)F)C2)cc1-c1cccnc1 (stereo partly drawn) [Example 99, trans-3-(2,2-difluorocyclopropyl)-N-(4-methyl-3-pyridin-3-ylphenyl)cyclobutane-1-carboxamide]	5.1 µM	1 to 10 µM
Cc1ccc(NC(=O)N2C3C[C@@H](C)C[C@@H]2C3)cc1-c1cncc(F)c1 (single isomer, unassigned) [Example 83, trans-N-(3-(5-fluoropyridin-3-yl)-4-methylphenyl)-3-methyl-6-azabicyclo[3.1.1]heptane-6-carboxamide]	0.01 µM	0.0001 to 1 µM
Cc1ccc(NC(=O)N2C[C@@H]3C[C@H]2C[C@H]3OC(F)F)cc1-c1cncc(F)c1 (racemic) [Example 31, cis-5-(difluoromethoxy)-N-(3-(5-fluoropyridin-3-yl)-4-methylphenyl)-2-azabicyclo[2.2.1]heptane-2-carboxamide]	28.6 µM	> 10 µM
O=C(Nc1cccc(-c2cncc(F)c2)c1)N1C2CCCC1C2 [Example 73, N-[3-(5-fluoropyridin-3-yl)phenyl]-6-azabicyclo[3.1.1]heptane-6-carboxamide]	1.2 µM	1 to 10 µM
Cc1ccc(NC(=O)[C@H]2C[C@](C#N)(C3CC3)C2)cc1-c1cncc(F)c1 [Example 107, cis-3-cyano-3-cyclopropyl-N-[3-(5-fluoropyridin-3-yl)-4-methylphenyl]cyclobutane-1-carboxamide]	38.9 µM	> 10 µM
Cc1ccc(-c2cc(NC(=O)N3C4CCCC3C4)ccc2C)cn1 [Example 70, N-[4-methyl-3-(6-methylpyridin-3-yl)phenyl]-6-azabicyclo[3.1.1]heptane-6-carboxamide]	0.3 µM	0.0001 to 1 µM
Cc1ccc(NC(=O)N2C3CCCC2C3)cc1-c1cncc(C(F)(F)F)c1 [Example 116, N-[4-methyl-3-[5-(trifluoromethyl)pyridin-3-yl]phenyl]-6-azabicyclo[3.1.1]heptane-6-carboxamide]	0.1 µM	0.0001 to 1 µM
CCO[C@H]1CC2C[C@H](C1)N2C(=O)Nc1ccc(C)c(-c2cncc(F)c2)c1 [Example 39, trans-3-ethoxy-N-(3-(5-fluoropyridin-3-yl)-4-methylphenyl)-6-azabicyclo[3.1.1]heptane-6-carboxamide]	8.3 µM	1 to 10 µM

From patent US20250361234A1 (NICO THERAPEUTICS, INC., priority 2022, published 2025)
